# Laboratory results from patent US4874760A, “4,7-dihydroisothiazolo(5,4-b)pyridine derivatives and cardiovascular treating agents containing said derivatives” (Toa Eiyo, Ltd., priority 1987, dated 1989).
# Like-named read-outs stand apart in the source and are kept apart here.
# What was measured:
# [1] = system: systolic blood pressure, spontaneously hypertensive rats; assay: Antihypertensive activity test; assay type: in vivo, rat (male spontaneously hypertensive); conditions: oral
# From the text: Variations in systolic blood pressure were periodically measured by a programmed electrosphygmomanometer-type blood pressure measuring device (NARCO, PE-300).
# [2] = system: KCl-induced contraction of helical blood vessel specimen (artery); assay: Test on calcium antagonizing activity (KCl-induced contraction of helical blood vessel specimen); parameters: species or system rabbit; conditions: contraction height at 40 mM KCl taken as 100%, 10 minutes after test compound, 37° C., read-out: ED50 (concentration which inhibits the contraction height of the control to an extent of 50%)
# Protocol: Female and male rabbits weighing 2 to 3 kg were used. They were anesthetized by intravenous injection of pentobarbital sodium, and sacrificed by bleeding from the femoral arteries. Immediately then, the artery was extracted from the chest, and a helical blood vessel specimen was prepared.
"IC50 ([2]; Oryctolagus cuniculus, 10 min)",IC50 ([2]; 10 min),IC50 [2],Compound,Systolic blood pressure (maximum variation) ([1]; 1 mg/kg),Systolic blood pressure (maximum variation) ([1]; 3 mg/kg),Systolic blood pressure (maximum variation) ([1]; 10 mg/kg),Systolic blood pressure (maximum variation) ([1]; 30 mg/kg)
60 nM,–,–,"CCOC(=O)C1=C(C)Nc2snc(CN(C)CCc3ccc(OC)c(OC)c3)c2C1c1cccc([N+](=O)[O-])c1 (centres unmarked) [Ia, ethyl 3-[N-(2-(3,4-dimethoxyphenyl)ethyl)-N-methylaminomethyl]-6-methyl-4-(3-nitrophenyl)-4,7-dihydroisothiazolo[5,4-b]pyridine-5-carboxylate]",-6 mmHg,-26 mmHg,-82 mmHg,-119 mmHg
–,25 nM,–,"CCOC(=O)C1=C(C)Nc2snc(CCN3CCN(c4ccccc4)CC3)c2C1c1cccc([N+](=O)[O-])c1 (single isomer, unassigned; (-)) [Ih, (-)-ethyl 3-[2-(4-phenyl-1-piperazinyl)ethyl]-6-methyl-4-(3-nitrophenyl)-4,7-dihydroisothiazolo[5,4-b]pyridine-5-carboxylate]",-36 mmHg,-93 mmHg,-137 mmHg,–
> 300 nM,–,–,"CC1=C(C(=O)OCCN(C)Cc2ccccc2)C(c2cccc([N+](=O)[O-])c2)c2c(CN3CCN(c4ccc(F)cc4)CC3)nsc2N1 (centres unmarked) [Id, 2-(N-benzyl-N-methylamino)ethyl 3-[4-(4-fluorophenyl)-1-piperazinylmethyl]-6-methyl-4-(3-nitrophenyl)-4,7-dihydroisothiazolo[5,4-b]pyridine-5-carboxylate]",-30 mmHg,-65 mmHg,-132 mmHg,-142 mmHg
33 nM,–,–,"CCOC(=O)C1=C(C)Nc2snc(CCN3CCN(c4ccccc4)CC3)c2C1c1cccc([N+](=O)[O-])c1 (centres unmarked) [Ie, ethyl 3-[2-(4-phenyl-1-piperazinyl)ethyl]-6-methyl-4-(3-nitrophenyl)-4,7-dihydroisodithiazolo[5,4-b]pyridine-5-carboxylate]",-41 mmHg,-51 mmHg,-101 mmHg,–
–,> 300 nM,–,"CCOC(=O)C1=C(C)Nc2snc(CCN3CCN(c4ccccc4)CC3)c2C1c1cccc([N+](=O)[O-])c1 (single isomer, unassigned; (+)) [Ig, (+)-ethyl 3-[2-(4-phenyl-1-piperazinyl)ethyl]-6-methyl-4-(3-nitrophenyl)-4,7-dihydroisothiazolo[5,4-b]pyridine-5-carboxylate]",–,–,–,–
62 nM,–,–,"CCOC(=O)C1=C(C)Nc2snc(CN(C)CCCOc3cccc(OC)c3)c2C1c1cccc([N+](=O)[O-])c1 (centres unmarked) [Ib, ethyl 3-[N-(3-(3-methoxyphenoxy)propyl)-N-methylaminomethyl]-6-methyl-4-(3-nitrophenyl)-4,7-dihydroisothiazolo[5,4-b]pyridine-5-carboxylate]",–,-30 mmHg,-76 mmHg,-108 mmHg
225 nM,–,–,"COc1ccc(CCN(C)Cc2nsc3c2C(c2cccc([N+](=O)[O-])c2)C(C(=O)OCCN(C)Cc2ccccc2)=C(C)N3)cc1OC (centres unmarked) [Ic, 2-(N-benzyl-N-methylamino)ethyl 3-[N-(2-(3,4-dimethoxyphenyl)ethyl)-N-methylaminomethyl]-6-methyl-4-(3-nitrophenyl)-4,7-dihydroisothiazolo[5,4-b]pyridine-5-carboxylate]",–,-37 mmHg,-92 mmHg,-135 mmHg
–,–,63.8 nM,"CCOC(=O)C1=C(C)Nc2snc(CCN3CCN(c4ccc(F)cc4)CC3)c2C1c1cccc([N+](=O)[O-])c1 (centres unmarked) [If, ethyl 3-[2-(4-(4-fluorophenyl)-1-piperazinyl)ethyl]-6-methyl-4-(3-nitrophenyl)-4,7-dihyhdroisothiazolo[5,4-b]pyridine-5-carboxylate]",-47 mmHg,-54 mmHg,-102 mmHg,–

Compound,"IC50 ([2]; Oryctolagus cuniculus, 10 min)",IC50 ([2]; 10 min),IC50 [2],Systolic blood pressure (maximum variation) ([1]; 1 mg/kg),Systolic blood pressure (maximum variation) ([1]; 3 mg/kg),Systolic blood pressure (maximum variation) ([1]; 10 mg/kg),Systolic blood pressure (maximum variation) ([1]; 30 mg/kg)
"COC(=O)C1=C(C)NC(C)=C(C(=O)OC)C1c1ccccc1[N+](=O)[O-] [Nifedipine, reference compound]",19.6 nM,–,–,-29 mmHg,-42 mmHg,-71 mmHg,–
